According to paper PMC2842125 (Journal of medicinal chemistry, 2010):

Legend:
[1] = test system: HEK293 cells; test: EGF-stimulated ERK1/2 activation, phospho-ERK1/2 immunoblot
[2] = molecular target: T1, SHP2 (Homo sapiens, UniProt Q06124); test: SHP2-catalyzed pNPP hydrolysis inhibition; type: biochemical; settings: ratio of IC50 values
T1 sequence (Q06124 262-528): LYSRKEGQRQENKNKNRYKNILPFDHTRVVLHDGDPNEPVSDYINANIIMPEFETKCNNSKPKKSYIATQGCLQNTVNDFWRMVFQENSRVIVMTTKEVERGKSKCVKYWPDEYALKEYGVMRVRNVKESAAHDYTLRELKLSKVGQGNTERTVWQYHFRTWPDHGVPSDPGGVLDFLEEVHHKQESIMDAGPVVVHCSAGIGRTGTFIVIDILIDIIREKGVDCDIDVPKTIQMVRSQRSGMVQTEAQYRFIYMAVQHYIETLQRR

| fold change of SHP2 IC50 relative to 9 [2] [fold] | SMILES | EGF-induced ERK1/2 activation, dose dependence ([1]; 0 to 20 μM, EGF stimulation 60 min) | initial transient phase of ERK1/2 activation (phospho-ERK1/2) ([1]; 10 μM, 3 h pre-incubation, 5-15 min post EGF 2 ng/mL) | sustained phase of ERK1/2 activation (phospho-ERK1/2) ([1]; 10 μM, 3 h pre-incubation, 60 min post EGF 2 ng/mL) | pERK1/2 level normalized by total ERK1/2 ([1]; 20 μM, EGF stimulation 60 min) |
| --- | --- | --- | --- | --- | --- |
| – | Cn1c(-c2ccccc2)c(-c2cn(CCC(=O)Nc3ccc(-c4ccccc4)cc3)nn2)c2cc(C(=O)O)c(O)cc21 [Compound 9, 3-(1-(3-(biphenyl-4-ylamino)-3-oxopropyl)-1H-1,2,3-triazol-4-yl)-6-hydroxy-1-methyl-2-phenyl-1H-indole-5-carboxylic acid] | concentration-dependent inhibition | not the initial transient phase | strongly inhibits | – |
| 15.6 | Cn1c(-c2ccccc2)c(-c2cn(CCC(=O)Nc3ccccc3)nn2)c2cc(C(=O)O)c(O)cc21 [Compound 14, 6-Hydroxy-1-methyl-3-(1-(3-oxo-3-(phenylamino)propyl)-1H-1,2,3-triazol-4yl)-2-phenyl-1H-indole-5-carboxylic acid] | – | – | – | no appreciable change |
| ~2 | Cn1c(-c2ccccc2)c(-c2cn(CC(=O)Nc3ccc(-c4ccccc4)cc3)nn2)c2cc(C(=O)O)c(O)cc21 [Compound 9a, 3-(1-(2-(Biphenyl-4-ylamino)-2-oxoethyl)-1H-1,2,3-triazol-4-yl)-6-hydroxy-1-methyl-2-phenyl-1H-indole-5-carboxylic acid] | – | – | – | – |
| ~2 | Cn1c(-c2ccccc2)c(-c2cn(CCCC(=O)Nc3ccc(-c4ccccc4)cc3)nn2)c2cc(C(=O)O)c(O)cc21 [Compound 9b, 3-(1-(4-(biphenyl-4-ylamino)-4-oxobutyl)-1H-1,2,3-triazol-4-yl)-6-hydroxy-1-methyl-2-phenyl-1H-indole-5-carboxylic acid] | – | – | – | – |
